What all share (format): ADME
Series [1] has as its target Cytochrome P450 2C9 (Homo sapiens, UniProt P11712). Description: Drug metabolism assessed as human recombinant CYP2C9-mediated 17-hydroexemestane formation rate per pmol of enzyme at 10 uM after 10 mins.
For series [2], the target named is T1, Cytochrome P450 2B6 (Homo sapiens, UniProt P20813).
T1 sequence (P20813 whole entry): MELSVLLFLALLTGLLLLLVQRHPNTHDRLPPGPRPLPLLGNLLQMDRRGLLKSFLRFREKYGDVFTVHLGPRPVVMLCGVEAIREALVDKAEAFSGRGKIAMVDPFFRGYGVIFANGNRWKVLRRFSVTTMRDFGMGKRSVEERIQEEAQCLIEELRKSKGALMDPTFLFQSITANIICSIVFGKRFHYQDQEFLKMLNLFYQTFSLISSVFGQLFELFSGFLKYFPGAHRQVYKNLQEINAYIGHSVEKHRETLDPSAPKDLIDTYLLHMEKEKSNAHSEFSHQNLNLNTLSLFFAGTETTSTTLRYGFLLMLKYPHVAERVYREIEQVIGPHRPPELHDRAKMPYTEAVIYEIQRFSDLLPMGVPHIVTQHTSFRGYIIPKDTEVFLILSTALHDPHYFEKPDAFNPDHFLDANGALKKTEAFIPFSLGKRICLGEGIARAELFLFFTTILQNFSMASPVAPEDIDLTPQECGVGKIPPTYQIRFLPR
Description: Drug metabolism assessed as human recombinant CYP2B6-mediated 17-hydroexemestane formation at 10 uM after 10 mins by Michaelis-Menten saturation curve analysis. Conditions: recombinant enzyme.

Series [3] addresses T2, Cytochrome P450 1A2 (Homo sapiens, UniProt P05177).
T2 sequence (P05177 whole entry): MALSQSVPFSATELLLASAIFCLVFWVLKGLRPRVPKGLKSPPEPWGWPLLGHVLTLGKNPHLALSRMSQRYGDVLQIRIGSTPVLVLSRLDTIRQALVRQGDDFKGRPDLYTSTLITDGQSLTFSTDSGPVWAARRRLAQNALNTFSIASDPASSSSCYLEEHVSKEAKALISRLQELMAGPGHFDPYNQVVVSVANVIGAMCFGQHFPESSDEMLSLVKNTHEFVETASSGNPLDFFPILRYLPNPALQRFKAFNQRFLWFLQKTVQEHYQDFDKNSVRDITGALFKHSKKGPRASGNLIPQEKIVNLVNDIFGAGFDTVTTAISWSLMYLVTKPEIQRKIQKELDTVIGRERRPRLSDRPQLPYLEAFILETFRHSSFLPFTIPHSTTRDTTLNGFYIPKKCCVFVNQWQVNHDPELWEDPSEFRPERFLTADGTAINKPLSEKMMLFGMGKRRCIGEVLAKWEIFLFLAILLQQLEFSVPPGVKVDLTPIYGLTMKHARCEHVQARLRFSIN
As to the kind of experiment: Drug metabolism assessed as human recombinant CYP1A2-mediated 17-hydroexemestane formation at 10 uM after 10 mins by Michaelis-Menten saturation curve analysis. The conditions noted are these: recombinant enzyme.

Series [4] has as its target Cytochrome P450 3A4 (Homo sapiens, UniProt P08684). As to the kind of experiment: Drug metabolism assessed as human recombinant CYP3A4-mediated 17-hydroexemestane formation rate per pmol of enzyme at 10 uM after 10 mins.
For series [5], the target named is T3, Cytochrome P450 4A11 (Homo sapiens, UniProt Q02928).
T3 sequence (Q02928 whole entry): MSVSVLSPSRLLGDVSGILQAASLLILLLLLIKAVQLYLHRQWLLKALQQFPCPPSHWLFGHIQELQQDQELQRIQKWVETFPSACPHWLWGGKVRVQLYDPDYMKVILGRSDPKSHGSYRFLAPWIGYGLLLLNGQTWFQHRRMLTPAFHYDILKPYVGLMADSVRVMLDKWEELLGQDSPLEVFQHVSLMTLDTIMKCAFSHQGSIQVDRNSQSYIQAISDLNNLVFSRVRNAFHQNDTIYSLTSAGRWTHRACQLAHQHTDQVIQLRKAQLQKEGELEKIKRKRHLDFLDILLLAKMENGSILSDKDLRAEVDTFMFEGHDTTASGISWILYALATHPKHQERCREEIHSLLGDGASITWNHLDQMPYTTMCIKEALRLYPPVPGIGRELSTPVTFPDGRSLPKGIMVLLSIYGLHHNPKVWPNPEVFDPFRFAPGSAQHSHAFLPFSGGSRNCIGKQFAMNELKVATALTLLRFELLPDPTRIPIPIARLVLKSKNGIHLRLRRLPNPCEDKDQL
Description: Drug metabolism assessed as human recombinant CYP4A11-mediated 17-hydroexemestane formation rate per pmol of enzyme at 10 uM after 10 mins.

Series [6] deals with Liver microsome. Description: Drug metabolism in human liver microsomes assessed as 17-hydroexemestane formation after 10 mins by Michaelis-Menten saturation curve analysis. In general terms: Liver microsomes are vesicles of endoplasmic reticulum, rich in cytochrome P450 enzymes.

Cytochrome P450 3A4, sequence (P08684 whole entry): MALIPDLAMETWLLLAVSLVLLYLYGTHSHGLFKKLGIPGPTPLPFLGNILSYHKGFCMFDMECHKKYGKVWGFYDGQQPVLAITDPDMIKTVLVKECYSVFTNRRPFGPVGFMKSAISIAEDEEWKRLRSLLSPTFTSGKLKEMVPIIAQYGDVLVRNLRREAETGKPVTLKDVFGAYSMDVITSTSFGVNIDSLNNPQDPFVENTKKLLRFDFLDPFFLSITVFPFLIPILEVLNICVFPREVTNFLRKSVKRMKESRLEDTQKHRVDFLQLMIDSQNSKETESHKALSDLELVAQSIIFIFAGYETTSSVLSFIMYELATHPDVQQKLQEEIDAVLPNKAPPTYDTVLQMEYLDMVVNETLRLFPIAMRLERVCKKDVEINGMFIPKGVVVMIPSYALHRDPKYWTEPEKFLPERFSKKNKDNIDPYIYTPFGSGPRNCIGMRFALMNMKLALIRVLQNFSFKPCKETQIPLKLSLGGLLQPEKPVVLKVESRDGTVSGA
Cytochrome P450 2C9, sequence (P11712 whole entry): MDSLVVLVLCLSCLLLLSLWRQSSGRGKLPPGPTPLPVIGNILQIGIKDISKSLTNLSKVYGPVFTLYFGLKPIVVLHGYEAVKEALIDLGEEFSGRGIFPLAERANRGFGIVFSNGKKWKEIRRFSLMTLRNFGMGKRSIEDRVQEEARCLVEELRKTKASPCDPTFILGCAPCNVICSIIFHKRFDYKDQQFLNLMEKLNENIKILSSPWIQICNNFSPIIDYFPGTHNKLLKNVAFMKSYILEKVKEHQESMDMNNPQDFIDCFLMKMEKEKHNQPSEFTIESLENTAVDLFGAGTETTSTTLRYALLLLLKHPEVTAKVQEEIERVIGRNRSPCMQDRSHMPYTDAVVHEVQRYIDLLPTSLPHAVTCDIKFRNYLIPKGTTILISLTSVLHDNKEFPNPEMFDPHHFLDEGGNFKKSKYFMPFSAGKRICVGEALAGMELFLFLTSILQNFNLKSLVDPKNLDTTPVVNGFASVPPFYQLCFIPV

For `C=C1C[C@@H]2[C@H](CC[C@]3(C)C(O)CC[C@@H]23)[C@@]2(C)C=CC(=O)C=C12` (stereo partly drawn), the Drug metabolism entry is “metabolite_not_detected” in series [1], “metabolite_detected” in series [3], 0.17 pmol/min in series [4] and 0.48 pmol/min in series [5]. The “Vmax(app)” value in series [2] stood at 3.9 pmol/mg/min; in series [6], 222.4 pmol/mg/min. Further, the Km in series [2] (read-out: Km(app)) was found to be 177 µM; in series [6] (read-out: Km(app)), 13.7 µM.

As usually defined, the Km is the substrate concentration at which the rate is half of its maximum.
